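Grown in 96-well plates, cells were treated for 48 hours with each compound at five concentrations. Insufficient inhibition: endpoint recorded as highest concentration tested. The concentration for 50% growth inhibition is given as GI50.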 Active and inactive are the calls of the source. Cut-off read from the data, not from the text of the source: active = GI50 up to about 1.1 µM and inactive = higher.
Assays:
Assay in all cases: NCI anticancer screen, dose series, 48 h
SK-MEL-2 = tested on: SK-MEL-2
SK-MEL-5 = tested on: SK-MEL-5
DLD-1 = tested on: DLD-1
A549 = tested on: A549
A498 = tested on: A498
OVCAR-8 = tested on: OVCAR-8
TK-10 = tested on: TK-10
SN12C = tested on: SN12C
786-0 = tested on: 786-0
XF498 = tested on: XF498
NCI-H226 = tested on: NCI-H226
M14 = tested on: M14
CCRF-CEM = tested on: CCRF-CEM
M19-MEL = tested on: M19-MEL
RXF 393 = tested on: RXF 393
OVCAR-5 = tested on: OVCAR-5
SF-268 = tested on: SF-268
OVCAR-3 = tested on: OVCAR-3
HOP-62 = tested on: HOP-62
HOP-92 = tested on: HOP-92
NCI-H23 = tested on: NCI-H23
UACC-257 = tested on: UACC-257
SNB-78 = tested on: SNB-78
OVCAR-4 = tested on: OVCAR-4
ACHN = tested on: ACHN
LXFL 529 = tested on: LXFL 529
HCC 2998 = tested on: HCC 2998
SR = tested on: SR
HCT-116 = tested on: HCT-116
LOX IMVI = tested on: LOX IMVI
SW-620 = tested on: SW-620
IGROV-1 = tested on: IGROV-1
DMS-114 = tested on: DMS-114
DMS-273 = tested on: DMS-273
U-251 = tested on: U-251
EKVX = tested on: EKVX
HOP-18 = tested on: HOP-18
SK-MEL-28 = tested on: SK-MEL-28
KM12 = tested on: KM12
HT-29 = tested on: HT-29
HCT-15 = tested on: HCT-15
KM-20L2 = tested on: KM-20L2
K562 = tested on: K562
CAKI-1 = tested on: CAKI-1
SNB-19 = tested on: SNB-19
Malme-3M = tested on: Malme-3M
SNB-75 = tested on: SNB-75
MOLT-4 = tested on: MOLT-4
UACC-62 = tested on: UACC-62
SF-539 = tested on: SF-539
SF-295 = tested on: SF-295
HL-60 = tested on: HL-60
NCI-H522 = tested on: NCI-H522
NCI-H460 = tested on: NCI-H460
SK-OV-3 = tested on: SK-OV-3
UO-31 = tested on: UO-31
COLO 205 = tested on: COLO 205

SMILES: Cc1c(Cl)cccc1NC(=O)C(=O)c1c(O)c2ccc(O)cc2oc1=O
- GI50 (SK-MEL-2): > 100 µM (inactive)
- GI50 (SK-MEL-5): > 100 µM (inactive)
- GI50 (DLD-1): > 100 µM (inactive)
- GI50 (A549): > 100 µM (inactive)
- GI50 (A498): > 100 µM (inactive)
- GI50 (OVCAR-8): > 100 µM (inactive)
- GI50 (TK-10): > 100 µM (inactive)
- GI50 (SN12C): > 100 µM (inactive)
- GI50 (786-0): > 100 µM (inactive)
- GI50 (XF498): > 100 µM (inactive)
- GI50 (NCI-H226): > 100 µM (inactive)
- GI50 (M14): > 100 µM (inactive)
- GI50 (CCRF-CEM): > 100 µM (inactive)
- GI50 (M19-MEL): > 100 µM (inactive)
- GI50 (RXF 393): > 100 µM (inactive)
- GI50 (OVCAR-5): > 100 µM (inactive)
- GI50 (SF-268): > 100 µM (inactive)
- GI50 (OVCAR-3): > 100 µM (inactive)
- GI50 (HOP-62): > 100 µM (inactive)
- GI50 (HOP-92): > 100 µM (inactive)
- GI50 (NCI-H23): > 100 µM (inactive)
- GI50 (UACC-257): > 100 µM (inactive)
- GI50 (SNB-78): > 100 µM (inactive)
- GI50 (OVCAR-4): > 100 µM (inactive)
- GI50 (ACHN): > 100 µM (inactive)
- GI50 (LXFL 529): > 100 µM (inactive)
- GI50 (HCC 2998): > 100 µM (inactive)
- GI50 (SR): > 100 µM (inactive)
- GI50 (HCT-116): > 100 µM (inactive)
- GI50 (LOX IMVI): > 100 µM (inactive)
- GI50 (SW-620): > 100 µM (inactive)
- GI50 (IGROV-1): > 100 µM (inactive)
- GI50 (DMS-114): > 100 µM (inactive)
- GI50 (DMS-273): > 100 µM (inactive)
- GI50 (U-251): > 100 µM (inactive)
- GI50 (EKVX): > 100 µM (inactive)
- GI50 (HOP-18): > 100 µM (inactive)
- GI50 (SK-MEL-28): > 100 µM (inactive)
- GI50 (KM12): > 100 µM (inactive)
- GI50 (HT-29): > 100 µM (inactive)
- GI50 (HCT-15): > 100 µM
- GI50 (KM-20L2): > 100 µM (inactive)
- GI50 (K562): > 100 µM (inactive)
- GI50 (CAKI-1): > 100 µM (inactive)
- GI50 (SNB-19): > 100 µM (inactive)
- GI50 (Malme-3M): > 100 µM (inactive)
- GI50 (SNB-75): > 100 µM (inactive)
- GI50 (MOLT-4): > 100 µM (inactive)
- GI50 (UACC-62): > 100 µM (inactive)
- GI50 (SF-539): > 100 µM (inactive)
- GI50 (SF-295): > 100 µM (inactive)
- GI50 (HL-60): > 100 µM (inactive)
- GI50 (NCI-H522): > 100 µM (inactive)
- GI50 (NCI-H460): > 100 µM (inactive)
- GI50 (SK-OV-3): > 100 µM (inactive)
- GI50 (UO-31): > 100 µM (inactive)
- GI50 (COLO 205): > 100 µM (inactive)

From ChEMBL document CHEMBL1201862, “PubChem BioAssay data set” (2004)
